The record followed here is ChEMBL document CHEMBL5316324, “Discovery, Characterization, and Engineering of LvIC, an α4/4-Conotoxin That Selectively Blocks Rat α6/α3β4 Nicotinic Acetylcholine Receptors” (J Med Chem, 2023).

Experiment [1] deals with Nicotinic acetylcholine receptor alpha6/alpha3/beta4 (Rattus norvegicus) (UniProt P04757+P12392+P43143). Briefly: Potency index, ratio of [T5A,P60]BuIA to test compound for rat alpha6/alpha3beta4 nAChR expressed in Xenopus Oocytes assessed as fold increase in presence of acetylcholine by Voltage-clamp recording. It is filed as cell-based. As to conditions: Oocyte.
The target of experiment [2] is Neuronal acetylcholine receptor; alpha3/beta4 (Rattus norvegicus) (UniProt P04757+P12392). Briefly: Potency index, ratio of [T5A,P60]BuIA to test compound for rat alpha3beta4 nAChR expressed in Xenopus oocytes assessed as fold decrease in presence of acetylcholine by Voltage-clamp recording. It is filed as cell-based. To be noted: Oocyte.

Molecules are shown by their SMILES. Peptide text beside a SMILES is read from it.

`CC(C)[C@H](NC(=O)[C@@H]1CCCN1C(=O)[C@H](CC(N)=O)NC(=O)[C@H](C)NC(=O)[C@H](CS)NC(=O)[C@H](CS)NC(=O)[C@@H](N)CCCNC(=N)N)C(=O)N[C@@H](CS)C(=O)N[C@@H](CC(N)=O)C(=O)NCC(=O)N[C@@H](CCCCN)C(=O)N[C@@H](Cc1cnc[nH]1)C(=O)N[C@@H](CS)C(N)=O` (H-RCCANPVCNGKHC-NH2): the fold change (FC) in experiment [1] came out at 3; in experiment [2] it was 10.
